One series has as its system ABCD2 gene expression. Put plainly: Rat DTEx microarray gene expression profiling in drug-treated female rat primary hepatocytes (FIG. 109): ABCD2. The class given is in vitro ADME. As for the experimental part:
(§1) Images were analysed using QuantArray software (GSI Lumonics Inc.).

A further series concerns ABCC3 gene expression. Put plainly: Rat DTEx microarray gene expression profiling in drug-treated female rat primary hepatocytes (FIG. 109): ABCC3. The class given is in vitro ADME. On the procedure:
as §1

The test system of another series is CYP3A1 gene expression. Put plainly: Rat DTEx microarray gene expression profiling in drug-treated female rat primary hepatocytes (FIG. 109): CYP3A1. Conditions: female rat primary hepatocytes treated with the drug. The text has this: The total RNA component of the nucleic acid lysate was isolated according to the manufacturer's instructions.
The mark [1] stands for this setting: female rat primary hepatocytes treated with the drug, FIG. 109.

The structures appear in SMILES notation. Like-named read-outs stand apart in the source and are kept apart here.

For the molecule `C[C@@H]1C[C@H]2[C@@H]3CCC4=CC(=O)C=C[C@]4(C)[C@@]3(F)[C@@H](O)C[C@]2(C)[C@@]1(O)C(=O)CO` [DEX, dexamethasone], the “effect on ABCD2 gene expression (normalized fluorescence intensity dendrogram plot)” value in the series with ABCD2 gene expression is “suppress”. In the series with ABCC3 gene expression, the “effect on ABCC3 gene expression (normalized fluorescence intensity dendrogram plot)” value was “induces gene expression”.

As for `CC(=O)[C@H]1[C@H](C#N)C[C@H]2[C@@H]3CC=C4C[C@@H](O)CC[C@]4(C)[C@H]3CC[C@@]21C` [PCN], the “effect on ABCD2 gene expression (normalized fluorescence intensity dendrogram plot)” value with ABCD2 gene expression (setting [1]) is on record as “suppress”. Also, the “effect on CYP3A1 gene expression (normalized fluorescence intensity dendrogram plot)” value in the series with CYP3A1 gene expression is given as “induce”. The “effect on ABCC3 gene expression (normalized fluorescence intensity dendrogram plot)” value in the series on ABCC3 gene expression (setting [1]) is given as “suppresses gene expression”.
